Measurements taken from PubChem BioAssay AID1963842 (Molecular Pharmacology Branch, DTP, NCI, 2024).

Test system: 677734-321-R-J1-PDC complex spheroid viability
Test: Anticancer human tumor 677734-321-R-J1-PDC patient-derived soft tissue sarcoma cell line growth inhibition [POLQ]
Details: for IC50: curve of first compound; for viability, T/C: stronger effect = lower value
Procedure: Multicellular complex tumor spheroid response to Polymerase (POL) inhibitors (novobiocin, ART-558, RP6685) in combination with a variety of drugs and investigational agents in selected tumor cell lines
The POL inhibitors (novobiocin, ART-558, and RP6685) were evaluated both individually and in combination with standard of care and investigational anticancer small molecules within a complex spheroid model of solid tumors. . Complex spheroids include a stromal component modeled by human endothelial cells (HUVEC) and fibroblasts modeled by human mesenchymal stem cells (MSCs). The concentration ranges selected for each drug and investigational agent were based upon clinically achievable concentrations if the clinical Cmax of the agent was known.
Compounds. The drugs and investigational agents: novobiocin (NSC847541), ART-558 (NSC835418), RP-6685 (NSC848927), peposertib (NSC802822), ceralasertib (NSC780249), elimusertib (NSC800525), camonsertib (NSC841442), AZD-1390 (NSC803789), olaparib (NSC753686), talazoparib (NSC767125), rucaparib (NSC756644), sotorasib (NSC818433), MRTX-1133 (NSC836407), SN-38 (NSC673596), topotecan (NSC609699), epotoside (NSC141540), doxorubicin (NSC123127), gemcitabine (NSC613327), 5-fluorouracil (NSC19893), paclitaxel (NSC125973), vemurafenib (NSC761431), MSA-2 (NSC828583), SN-011 (NSC837082), adavosertib (NSC754352), prexasertib (NSC758257), carboplatin (NSC241240) and oxaliplatin (NSC266046), were obtained from the National Cancer Institute (NCI) Developmental Therapeutics Program Chemical Repository (21). The FDA-approved anticancer drug set is available from the Developmental Therapeutics Program at https://dtp.cancer.gov/organization/dscb/obtaining/. […] The stock solutions were prepared in dimethyl sulfoxide (DMSO, Sigma-Aldrich, St. Louis, MO, cat. D2650), except for the platinum compounds which were prepared in saline (Quality Biological, Gaithersburg, MD, cat. 114-055-101), at 800-fold the tested concentration and stored at -70 degrees C prior to their use. All drugs and investigational agents were tested over a range starting from a high concentration at or near the clinical Cmax and decreasing in half-log increments. If the clinical Cmax for an agent had not been determined, the highest concentration tested was 10 microM, except for SN-38, which was tested at a high concentration of 1 microM.
Cell Culture. All cells were maintained in an incubator at 37 degrees C and 5% CO2 with 95% humidity. The PDC lines were cultured according to standard operating procedures established by the NCI PDMR (https://pdmr.cancer.gov). Table 3 of the manuscript, lists the cell lines along with the number of the three cell types plated to form the mct-spheroids and media for tumor cell growth. After thawing, all PDC lines, except 997537-175-T-J1-PDC and 415267-285-R-J2-PDC, were cultured in Matrigel-coated flasks prepared with a working solution of 1X Ham's F-12 nutrient mix, without supplementation (Thermo Fisher Scientific, cat. 11765054), 100 U/mL penicillin-streptomycin (Thermo Fisher Scientific, cat. 15140122), and 2.5% Matrigel (Corning Inc., Corning, NY, cat. 354248) for the first three passages. The two PDC lines 997537-175-T-J1-PDC and 415267-285-R-J2-PDC were cultured on uncoated flasks. The 857933-349-R-J2-PDC line was cultured in 6C/Colon 1B media containing advanced DMEM/F-12 (Thermo Fisher Scientific, cat. 12634028), 10 mM HEPES (Thermo Fisher Scientific, cat. 15630080), 1X GlutaMAX supplement (Thermo Fisher Scientific, cat. 35050061), 0.1 mg/mL primocin (InvivoGen, San Diego, CA, cat. ant-pm-2), 10% defined fetal bovine serum, heat inactivated (HyClone Laboratories Inc., Logan, UT, cat. SH30070.03HI), 50% L-WRN conditioned media (ATCC, cat. CRL-3276), 1.25 mM N-Acetyl-L-cysteine (Sigma-Aldrich, cat. A9165), 10 mM nicotinamide (Sigma-Aldrich, cat. N0636), 1X B-27 supplement (Thermo Fisher Scientific, cat. 17504044), 1X N-2 supplement (Thermo Fisher Scientific, cat. […]

[1] = second compound 0.0316 µM, first compound 0.0316 µM
[2] = second compound 0.0316 µM, first compound 0.1 µM
[3] = second compound 0.1 µM, first compound 0.0316 µM
[4] = second compound 0.1 µM, first compound 0.1 µM
[5] = second compound 0.316 µM, first compound 0.0316 µM
[6] = second compound 0.316 µM, first compound 0.1 µM
[7] = second compound 1 µM, first compound 0.0316 µM
[8] = second compound 1 µM, first compound 0.1 µM
[9] = second compound 3.16 µM, first compound 0.0316 µM
[10] = second compound 3.16 µM, first compound 0.1 µM
[11] = second compound 10 µM, first compound 0.0316 µM
[12] = second compound 10 µM, first compound 0.1 µM
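Note: spheroids exposed to compounds for one week.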
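Throughout, for viability, T/C: 100% = vehicle DMSO treated spheroids.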

CC[C@@]1(O)C(=O)OCc2c1cc1n(c2=O)Cc2cc3c(CN(C)C)c(O)ccc3nc2-1 + Nc1ccc(C#CCN(C(=O)Cc2ncc(C(F)(F)F)cc2C(F)(F)F)c2ccc(F)cc2)nn1
IC50 (second compound 0.0316 µM): 19.9 nM | IC50 (second compound 0.1 µM): 21.2 nM | IC50 (second compound 0.316 µM): 22.1 nM | IC50 (second compound 1 µM): 22.6 nM | IC50 (second compound 3.16 µM): 22.4 nM | IC50 (second compound 10 µM): 22.1 nM | viability, T/C (second compound 0.0316 µM, first compound 0.000316 µM): 108% | viability, T/C (second compound 0.0316 µM, first compound 0.001 µM): 115% | viability, T/C (second compound 0.0316 µM, first compound 0.00316 µM): 117% | viability, T/C (second compound 0.0316 µM, first compound 0.01 µM): 86.2% | viability, T/C [1]: 25.9% | viability, T/C [2]: 15.3% | viability, T/C (second compound 0.1 µM, first compound 0.000316 µM): 99.3% | viability, T/C (second compound 0.1 µM, first compound 0.001 µM): 97.7% | viability, T/C (second compound 0.1 µM, first compound 0.00316 µM): 99.2% | viability, T/C (second compound 0.1 µM, first compound 0.01 µM): 87.3% | viability, T/C [3]: 30.3% | viability, T/C [4]: 13% | viability, T/C (second compound 0.316 µM, first compound 0.000316 µM): 116% | viability, T/C (second compound 0.316 µM, first compound 0.001 µM): 105% | viability, T/C (second compound 0.316 µM, first compound 0.00316 µM): 90.4% | viability, T/C (second compound 0.316 µM, first compound 0.01 µM): 98.2% | viability, T/C [5]: 28.1% | viability, T/C [6]: 14.9% | viability, T/C (second compound 1 µM, first compound 0.000316 µM): 110% | viability, T/C (second compound 1 µM, first compound 0.001 µM): 99.9% | viability, T/C (second compound 1 µM, first compound 0.00316 µM): 103% | viability, T/C (second compound 1 µM, first compound 0.01 µM): 89.9% | viability, T/C [7]: 33.6% | viability, T/C [8]: 12.8% | viability, T/C (second compound 3.16 µM, first compound 0.000316 µM): 102% | viability, T/C (second compound 3.16 µM, first compound 0.001 µM): 102% | viability, T/C (second compound 3.16 µM, first compound 0.00316 µM): 104% | viability, T/C (second compound 3.16 µM, first compound 0.01 µM): 102% | viability, T/C [9]: 27.7% | viability, T/C [10]: 17.6% | viability, T/C (second compound 10 µM, first compound 0.000316 µM): 135% | viability, T/C (second compound 10 µM, first compound 0.001 µM): 106% | viability, T/C (second compound 10 µM, first compound 0.00316 µM): 92.5% | viability, T/C (second compound 10 µM, first compound 0.01 µM): 83.7% | viability, T/C [11]: 29.4% | viability, T/C [12]: 13.8%

O=c1[nH]cc(F)c(=O)[nH]1 + Nc1ccc(C#CCN(C(=O)Cc2ncc(C(F)(F)F)cc2C(F)(F)F)c2ccc(F)cc2)nn1
IC50 (second compound 0.0316 µM): > 10000 nM | IC50 (second compound 0.1 µM): > 10000 nM | IC50 (second compound 0.316 µM): > 10000 nM | IC50 (second compound 1 µM): > 10000 nM | IC50 (second compound 3.16 µM): > 10000 nM | IC50 (second compound 10 µM): > 10000 nM | viability, T/C [1]: 101% | viability, T/C [2]: 113% | viability, T/C (second compound 0.0316 µM, first compound 0.316 µM): 93.8% | viability, T/C (second compound 0.0316 µM, first compound 1 µM): 91.9% | viability, T/C (second compound 0.0316 µM, first compound 3.16 µM): 68.7% | viability, T/C (second compound 0.0316 µM, first compound 10 µM): 54.7% | viability, T/C [3]: 117% | viability, T/C [4]: 112% | viability, T/C (second compound 0.1 µM, first compound 0.316 µM): 101% | viability, T/C (second compound 0.1 µM, first compound 1 µM): 108% | viability, T/C (second compound 0.1 µM, first compound 3.16 µM): 64.9% | viability, T/C (second compound 0.1 µM, first compound 10 µM): 54.4% | viability, T/C [5]: 103% | viability, T/C [6]: 105% | viability, T/C (second compound 0.316 µM, first compound 0.316 µM): 119% | viability, T/C (second compound 0.316 µM, first compound 1 µM): 76.5% | viability, T/C (second compound 0.316 µM, first compound 3.16 µM): 66.5% | viability, T/C (second compound 0.316 µM, first compound 10 µM): 54.9% | viability, T/C [7]: 107% | viability, T/C [8]: 93.8% | viability, T/C (second compound 1 µM, first compound 0.316 µM): 96.4% | viability, T/C (second compound 1 µM, first compound 1 µM): 90.8% | viability, T/C (second compound 1 µM, first compound 3.16 µM): 61.3% | viability, T/C (second compound 1 µM, first compound 10 µM): 56.4% | viability, T/C [9]: 102% | viability, T/C [10]: 99% | viability, T/C (second compound 3.16 µM, first compound 0.316 µM): 103% | viability, T/C (second compound 3.16 µM, first compound 1 µM): 89% | viability, T/C (second compound 3.16 µM, first compound 3.16 µM): 65.1% | viability, T/C (second compound 3.16 µM, first compound 10 µM): 53.3% | viability, T/C [11]: 101% | viability, T/C [12]: 110% | viability, T/C (second compound 10 µM, first compound 0.316 µM): 95.5% | viability, T/C (second compound 10 µM, first compound 1 µM): 94.7% | viability, T/C (second compound 10 µM, first compound 3.16 µM): 68.9% | viability, T/C (second compound 10 µM, first compound 10 µM): 54.5%
